Measurements as given in patent US20250313563A1, “GLYCOGEN SYNTHASE KINASE 3 INHIBITORS AND USES THEREOF” (The Broad Institute, Inc., priority 2022, published 2025).
Read-outs that look alike come from different tables or passages of the source.

How the values were obtained:
[1] = target: GSK3b (GST-full length GSK3b) (Homo sapiens (Human), UniProt P49841); test: GSK3b TR-FRET kinase assay; assay type: biochemical
In short: (§1)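 IC50 came from the normalized 665/615 nm TR-FRET ratio plotted against log compound concentration. The Tb-labelled pSer641 antibody and streptavidin-d2 detected phosphorylation of biotinylated S645-primed glycogen synthase peptide (200 nM) by 1 nM full-length GST-kinase. ATP was 4 μM for α, 2 μM for β, or 1 mM.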

[2] = target: GSK3α (GST-full length GSK3α) (Homo sapiens (Human), UniProt P49840); test: GSK3α TR-FRET kinase assay; assay type: biochemical
In short: as §1

[3] = 1 nM GSK3b, 2 μM ATP, 30 minute preincubation, Table 16, read-out: GSK3-B TR-FRET BIOCHEMICAL (TR-FRET), IC50
[4] = 1 nM GSK3α, 4 μM ATP, 30 minute preincubation, Table 16, read-out: GSK3-A TR-FRET BIOCHEMICAL (TR-FRET), IC50
[5] = 1 nM GSK3b, 2 μM ATP, 30 minute preincubation, Table 16, read-out: GSK3-B TR-FRET BIOCHEMICAL (TR-FRET)
[6] = 1 nM GSK3α, 4 μM ATP, 30 minute preincubation, Table 16, read-out: GSK3-A TR-FRET BIOCHEMICAL (TR-FRET)

Sequence of GSK3b (GST-full length GSK3b) (P49841 whole entry): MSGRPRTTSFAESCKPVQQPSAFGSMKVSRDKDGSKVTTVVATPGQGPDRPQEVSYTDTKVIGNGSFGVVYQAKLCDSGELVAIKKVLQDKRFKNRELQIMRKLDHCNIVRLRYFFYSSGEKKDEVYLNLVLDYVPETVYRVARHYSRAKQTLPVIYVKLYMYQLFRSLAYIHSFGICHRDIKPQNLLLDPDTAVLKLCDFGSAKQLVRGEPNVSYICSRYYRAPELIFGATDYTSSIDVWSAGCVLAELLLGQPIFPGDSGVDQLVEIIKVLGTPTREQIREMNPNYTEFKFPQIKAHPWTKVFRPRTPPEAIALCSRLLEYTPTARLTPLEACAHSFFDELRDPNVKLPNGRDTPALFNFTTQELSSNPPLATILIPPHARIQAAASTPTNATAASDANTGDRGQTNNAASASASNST
Sequence of GSK3α (GST-full length GSK3α) (P49840 whole entry): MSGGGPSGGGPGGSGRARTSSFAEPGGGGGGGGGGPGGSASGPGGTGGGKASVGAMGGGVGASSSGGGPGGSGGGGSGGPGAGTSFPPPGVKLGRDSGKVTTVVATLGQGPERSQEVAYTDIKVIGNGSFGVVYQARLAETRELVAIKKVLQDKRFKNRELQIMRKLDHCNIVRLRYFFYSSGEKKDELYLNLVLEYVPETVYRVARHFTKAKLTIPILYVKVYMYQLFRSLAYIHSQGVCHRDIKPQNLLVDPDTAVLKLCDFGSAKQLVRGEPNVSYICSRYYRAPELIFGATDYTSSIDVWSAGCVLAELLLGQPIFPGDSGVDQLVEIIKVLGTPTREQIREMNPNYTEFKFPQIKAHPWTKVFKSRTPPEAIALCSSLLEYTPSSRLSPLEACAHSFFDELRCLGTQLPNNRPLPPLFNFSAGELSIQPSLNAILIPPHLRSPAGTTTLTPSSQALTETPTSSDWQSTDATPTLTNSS

IC50 [1, 3] | IC50 [2, 4] | IC50 [1, 5] | IC50 [2, 6] | SMILES | also measured
1 to 5 µM | 0.1 to 1 µM |  |  | CCC1(c2cccc(N(C)c3cnn(C)c3)c2)C2=C(CC(C)(C)CC2=O)Nc2n[nH]cc21 (centres unmarked) [Compound 885382] | 
0.1 to 1 µM | ≤ 0.1 µM |  |  | CC[C@]1(c2cccc([C@H]3CCOC3)c2)C2=C(CC(C)(C)CC2=O)Nc2n[nH]cc21 [Compound 889558] | 
1 to 5 µM | 0.1 to 1 µM |  |  | CCC1(c2cccc(C3CCOC3)c2)C2=C(CC(C)(C)CC2=O)Nc2n[nH]cc21 (centres unmarked) [Compound 889565] | 
 |  | 0.1 to 1 µM | ≤ 0.1 µM | CC1(C)CC(=O)C2=C(C1)Nc1n[nH]cc1C21CSC1 [Compound 889567] | 
 |  | 1 to 5 µM | 0.1 to 1 µM | CC1(C)CC(=O)C2=C(C1)Nc1n[nH]cc1C21CN(C(=O)OCc2ccccc2)C1 [Compound 889568] | 
 |  | 0.1 to 1 µM | 0.1 to 1 µM | CC1(C)CC(=O)C2=C(C1)Nc1n[nH]cc1C21COC1 [Compound 889569] | 
> 5 µM | > 5 µM |  |  | CC1(C)CC(=O)C2=C(C1)Nc1n[nH]cc1C2(CO)CO [Compound 889570] | 
> 5 µM | > 5 µM |  |  | CC1(C)CC(=O)C2=C(C1)Nc1n[nH]cc1C21CCCNCC1 (centres unmarked) [Compound 889571] | 
0.1 to 1 µM | 0.1 to 1 µM |  |  | O=C1CC(C(F)(F)F)CC2=C1C1(CCOCC1)c1c[nH]nc1N2 (centres unmarked) [Compound 889572] | 
0.1 to 1 µM | ≤ 0.1 µM |  |  | O=C1CC2(CCOC2)CC2=C1C1(CCOCC1)c1c[nH]nc1N2 (centres unmarked) [Compound 889573] | 
 |  | 0.1 to 1 µM | 0.1 to 1 µM | CC1(C)CC(=O)C2=C(C1)Nc1n[nH]cc1C21CCCN(CC(F)F)CC1 (centres unmarked) [Compound 889574] | 
1 to 5 µM | 0.1 to 1 µM |  |  | CC(=O)N1CCCC2(CC1)C1=C(CC(C)(C)CC1=O)Nc1n[nH]cc12 (centres unmarked) [Compound 889575] | 
 |  | 0.1 to 1 µM | 0.1 to 1 µM | CC1(C)CC(=O)C2=C(C1)Nc1n[nH]cc1C21CCCN(CC(F)(F)F)CC1 (centres unmarked) [Compound 889576] | 
1 to 5 µM | 1 to 5 µM |  |  | CC1(C)CC(=O)C2=C(C1)Nc1n[nH]cc1C21CCCN(C(=O)c2ccccc2)CC1 (centres unmarked) [Compound 889577] | 
 |  | ≤ 0.1 µM | ≤ 0.1 µM | CC1(C)CC(=O)C2=C(C1)Nc1n[nH]cc1C21CCCN(S(=O)(=O)c2ccccc2)CC1 (centres unmarked) [Compound 889578] | 
≤ 0.1 µM | ≤ 0.1 µM |  |  | CCC1(c2cccc(S(=O)(=O)CC)c2)C2=C(CC(C)(C)CC2=O)Nc2n[nH]cc21 (centres unmarked) [Compound 889579] | 
1 to 5 µM | 0.1 to 1 µM |  |  | CCC1(c2cccc(N3CCOCC3)c2)C2=C(CC(C)(C)CC2=O)Nc2n[nH]c(C)c21 (centres unmarked) [Compound 889582] | 
> 5 µM | 1 to 5 µM |  |  | CC(=O)N1CC[C@@]2(C1)C1=C(CC(C)(C)CC1=O)Nc1n[nH]cc12 [Compound 889583] | 
1 to 5 µM | 0.1 to 1 µM |  |  | CC(=O)N1CC[C@]2(C1)C1=C(CC(C)(C)CC1=O)Nc1n[nH]cc12 [Compound 889584] | 
0.1 to 1 µM | 0.1 to 1 µM |  |  | CCC1(c2cccc(N3CCC3)c2)C2=C(CC(C)(C)CC2=O)Nc2n[nH]cc21 (centres unmarked) [Compound 889631] | 
> 5 µM | > 5 µM |  |  | CC[C@]1(c2cccc(N3CCC3)c2)C2=C(CC(C)(C)CC2=O)Nc2n[nH]cc21 [Compound 889632] | 
≤ 0.1 µM | ≤ 0.1 µM |  |  | CCC1(c2cccc(N3CCCc4ncccc43)c2)C2=C(CC(C)(C)CC2=O)Nc2n[nH]cc21 (centres unmarked) [Compound 889639] | IC50 ([1]; read-out: GSK3-B (TR-FRET 1 mM ATP), GMean, IC50, 1 mM ATP, geometric mean): 0.1 to 1 µM; IC50 ([2]; read-out: GSK3-A (TR-FRET 1 mM ATP), GMean, IC50, 1 mM ATP, geometric mean): ≤ 0.1 µM
 |  | 0.1 to 1 µM | ≤ 0.1 µM | CC1(C)CC(=O)C2=C(C1)Nc1n[nH]cc1[C@]21C[C@H](c2ccncc2)C1 [Compound 889664] | 
 |  | ≤ 0.1 µM | ≤ 0.1 µM | CC1(C)CC(=O)C2=C(C1)Nc1n[nH]cc1[C@]21C[C@@H](c2ccncc2)C1 [Compound 889665] | IC50 ([1]; GSK3-B (TR-FRET 1 mM ATP), GMean, IC50, 1 mM ATP, geometric mean): 0.1 to 1 µM; IC50 ([2]; GSK3-A (TR-FRET 1 mM ATP), GMean, IC50, 1 mM ATP, geometric mean): ≤ 0.1 µM
≤ 0.1 µM | ≤ 0.1 µM |  |  | CCC1(c2cccc(N(C(C)=O)C(C)C)c2)C2=C(CC(C)(C)CC2=O)Nc2n[nH]cc21 (centres unmarked) [Compound 893305] | 
≤ 0.1 µM | ≤ 0.1 µM |  |  | CCC1(c2cccc(N(CCOC)C(C)=O)c2)C2=C(CC(C)(C)CC2=O)Nc2n[nH]cc21 (centres unmarked) [Compound 893306] | 
 |  | 0.1 to 1 µM | ≤ 0.1 µM | O=C1CC2(CCCCC2)CC2=C1C1(CCOCC1)c1c[nH]nc1N2 [Compound 893307] | 
 |  | 0.1 to 1 µM | ≤ 0.1 µM | O=C1CC2(CCCC2)CC2=C1C1(CCOCC1)c1c[nH]nc1N2 [Compound 893308] | 
1 to 5 µM | 0.1 to 1 µM |  |  | O=C1CC(c2ccccc2)CC2=C1C1(CCOCC1)c1c[nH]nc1N2 (centres unmarked) [Compound 893309] | 
